Results published in patent US10350284B1, “Antigen specific multi epitope-based anti-infective vaccines” (priority 2009, dated 2019).
Several values for one entry are separate records, joined by “and”; a condition that tells them apart may be missing. Equal values may be shown once. Read-outs that look alike come from different tables or passages of the source.

Assays:
Format in all cases: cell-based, human
[1] = test system: naïve peripheral blood mononuclear cells (PBMC); assay: Proliferation ([3H] Thymidine) of PBMC from naïve donors stimulated with VXL tuberculosis vaccine candidates; conditions: for proliferation in donors which also manifested response to PPD: PPD positive (SI≥2) naïve PBMC, FIG. 3B; for proliferation in donors which also manifested response to PPD / positive proliferation in donors which also manifested response to TT / SI and coverage in the total 11 donors / proliferation in PPD positive versus PPD negative donors: in words; for positive proliferation in donors which also manifested response to TT: TT positive (SI≥2) naïve PBMC, FIG. 3A; for SI and coverage in the total 11 donors: in comparison with the positive controls; for proliferation in PPD positive versus PPD negative donors: naïve PBMC, FIG. 4
[2] = test system: autologous macrophages infected with live Mtb; conditions: peptide-induced T cell lines from naïve donors and TB patients, FIG. 12; in words
[3] = test system: anti-VXL effector T-cell lines; assay: IFN-gamma released by effector T cell lines during the lysis process (ELISA)
[4] = test system: anti-VXL T cell lines after the 3rd stimulation; assay: Intra-cellular staining (ICS) FACS for IFN-gamma and IL-4 in T cell lines; conditions: 6 h stimulation with peptide-loaded autologous macrophages, FIG. 15
[5] = test system: autologous macrophages loaded with VXL VCs; assay: Cytotoxic activity of VXL-induced T cell lines against loaded autologous macrophages (35S Methionine); conditions: T cell line induced by the peptide; in words
[6] = test system: PBMC derived from naïve donors; assay: Cytokine secretion (quantitative ELISA) by PBMC from naïve donors; conditions: for donors with positive (x>0.1 ng/ml) IL-2 secretion / donors with positive (x>0.1 ng/ml) IL-12 secretion / donors with positive (x>0.1 ng/ml) IL-4 secretion: 48 hrs stimulation, FIG. 7A
[7] = test system: anti-VXL VCs T cell lines from naïve donors; assay: FACS phenotype of anti-VXL T cell lines (CD44high, CD62Lhigh); conditions: FIG. 14; for CD44high activated effector cells in CD8+ / CD62Lhigh memory cells in CD8+: after the 3rd stimulation; for CD44high activated effector cells in CD4+ / CD62Lhigh memory cells in CD4+: already after the 1st stimulation
[8] = patient #18 (FIG. 12D), Mtb patient T cell line
[9] = donor #15 (FIG. 12B), naïve donor T cell line

## MTDVSRKIRAWGRRLMIGTAAAVVLPGLVGLAGGAATAGA (listed as Mycobacterium tuberculosis) [VXL201, signal peptide of Antigen 85B, Tuberculosis]
[1]
  proliferation in donors which also manifested response to PPD: stronger
  positive proliferation in donors which also manifested response to TT: more positive
  SI and coverage in the total 11 donors: highest SI and widest coverage
  proliferation in PPD positive versus PPD negative donors: even stronger in donors with previous exposure to the tuberculosis Bactria
[2]
  lysis of Mtb infected macrophages: high and specific lysis
[3]
  IFN-gamma detected: 6 µg/mL and 10 µg/mL and 11.3 µg/mL
[3]; [8]
  IFN-gamma detected: 14 µg/mL

## MLVLLVAVLVTAVYAFVHA (listed as Mycobacterium tuberculosis) [VXL211, signal peptide of Uncharacterized protein Rv0476/MT04941 precursor, Tuberculosis]
[4]
  maximal percentage of specific IFN-gamma produced by CD8+ T-cells: 10.6%
[5]
  lysis against PPD-loaded targets: specific lysis
[6]
  donors with positive (x>0.1 ng/ml) IL-2 secretion: 91.6%
  donors with positive (x>0.1 ng/ml) IL-12 secretion: 58.3%
[1]
  proliferation in donors which also manifested response to PPD: stronger
  positive proliferation in donors which also manifested response to TT: more positive
  SI and coverage in the total 11 donors: highest SI and widest coverage
  proliferation in PPD positive versus PPD negative donors: even stronger in donors with previous exposure to the tuberculosis Bactria
[2]
  lysis of Mtb infected macrophages: moderate lysis
[3]
  IFN-gamma detected: 9.2 µg/mL and 7.8 µg/mL
[3]; [9]
  IFN-gamma detected: 5.9 µg/mL
[7]
  CD44high activated effector cells in CD8+: 80%
  CD62Lhigh memory cells in CD8+: 40.9%
  CD44high activated effector cells in CD4+: 41%

## MKIRLHTLLAVLTAAPLLLAAAGCGS [VXL200]
[6]
  donors with positive (x>0.1 ng/ml) IL-2 secretion: 25%
[1]
  proliferation in donors which also manifested response to PPD: stronger
  positive proliferation in donors which also manifested response to TT: to some extent

## MKTGTATTRRRLLAVLIALALPGAAVA (listed as Mycobacterium tuberculosis) [VXL206, signal peptide of Hypothetical protein MT0 213, Tuberculosis]
[6]
  donors with positive (x>0.1 ng/ml) IL-12 secretion: 8.6%

## MRFAQPSALSRFSALTRDWFTSTFAAPTAAQA (listed as Mycobacterium tuberculosis) [VXL208, signal peptide of ATP dependent helicase putative, Tuberculosis]
[6]
  donors with positive (x>0.1 ng/ml) IL-4 secretion: 25%
[6]; in words
  IL-4 secretion: some secretion of IL-4
[1]
  proliferation in donors which also manifested response to PPD: stronger
  positive proliferation in donors which also manifested response to TT: more positive
  SI and coverage in the total 11 donors: highest SI and widest coverage
  proliferation in PPD positive versus PPD negative donors: even stronger in donors with previous exposure to the tuberculosis Bactria
[2]
  lysis of Mtb infected macrophages: lower lysis levels
[3]
  IFN-gamma detected: 2.6 µg/mL
[3]; [9]
  IFN-gamma detected: 3.6 µg/mL
[7]
  CD44high activated effector cells in CD8+: 50.2%
  CD62Lhigh memory cells in CD8+: 32.1%
  CD44high activated effector cells in CD4+: 52%
  CD62Lhigh memory cells in CD4+: 22%

## MRPSRYAPLLCAMVLALAWLSAVAG (listed as Mycobacterium tuberculosis) [VXL214, signal peptide of Putative lipoprotein IpqV precursor, Tuberculosis]
[1]
  positive proliferation in donors which also manifested response to TT: to some extent

## MKRGLTVAVAGAAILVAGLSGCSS [VXL203]
[4]
  maximal percentage of specific IFN-gamma produced by CD8+ T-cells: 8.2%
[5]
  lysis against PPD-loaded targets: specific lysis
[6]
  donors with positive (x>0.1 ng/ml) IL-12 secretion: 8.6%
[1]
  average SI: 1.8+/−0.8
  positive proliferation in donors which also manifested response to TT: to some extent
  SI and coverage in the total 11 donors: to some extent
  proliferation in PPD positive versus PPD negative donors: more potent in donors which were not exposed in the past to the tuberculosis Bactria
[1]; pure (>90%) peptide, naïve donors, FIG. 9A
  average SI: 5.7+/−6.8
[2]
  lysis of Mtb infected macrophages: high and specific lysis
[3]; [9]
  IFN-gamma detected: 3.8 µg/mL
[3]; [8]
  IFN-gamma detected: 11 µg/mL
[7]
  CD44high activated effector cells in CD8+: 79%
  CD62Lhigh memory cells in CD8+: 17%
  CD62Lhigh memory cells in CD4+: 39%

## MAAMWRRRPLSSALLSFGLLLGGLPLAAPPLAGA (listed as Mycobacterium tuberculosis) [VXL207, signal peptide of Protease, Tuberculosis]
[6]
  donors with positive (x>0.1 ng/ml) IL-4 secretion: 25%
  donors with positive (x>0.1 ng/ml) IL-12 secretion: 8.6%

## MLLRKGTVYVLVIRADLVNAMVAHA (listed as Mycobacterium tuberculosis) [VXL212, signal peptide of Uncharacterized protein Rv1334/MT1376 precursor, Tuberculosis]
[6]
  donors with positive (x>0.1 ng/ml) IL-12 secretion: 58.3%
[1]
  proliferation in donors which also manifested response to PPD: stronger
  positive proliferation in donors which also manifested response to TT: more positive
  SI and coverage in the total 11 donors: highest SI and widest coverage
  proliferation in PPD positive versus PPD negative donors: even stronger in donors with previous exposure to the tuberculosis Bactria
[2]
  lysis of Mtb infected macrophages: lower lysis levels
[3]
  IFN-gamma detected: 5.6 µg/mL and 3.6 µg/mL
[3]; [8]
  IFN-gamma detected: 7.5 µg/mL
